Measured values from ChEMBL document CHEMBL1275539 (2008).
Converted amounts (≈) assume the structure as drawn.

Columns and labels:
Assay type in all cases: functional
Streptococcus pneumoniae [1] = experiment: Antibacterial activity against erythromycin-resistant Streptococcus pneumoniae assessed as percent susceptible isolates by agar dilution method
Streptococcus pneumoniae [2] = experiment: Antibacterial activity against penicillin-nonsusceptible Streptococcus pneumoniae isolate by agar dilution method
Streptococcus pneumoniae [3] = experiment: Antibacterial activity against levofloxacin-resistant Streptococcus pneumoniae assessed as percent susceptible isolates by agar dilution method
Streptococcus pneumoniae [4] = experiment: Antibacterial activity against cefotaxime-intermediate Streptococcus pneumoniae isolate by agar dilution method
Streptococcus pneumoniae [5] = experiment: Antibacterial activity against penicillin-nonsusceptible Streptococcus pneumoniae assessed as percent susceptible isolates by agar dilution method
Streptococcus pneumoniae [6] = experiment: Antibacterial activity against cefotaxime-resistant Streptococcus pneumoniae isolate by agar dilution method
Streptococcus pneumoniae [7] = experiment: Antibacterial activity against erythromycin-resistant Streptococcus pneumoniae isolate by agar dilution method
Streptococcus pneumoniae [8] = experiment: Antibacterial activity against cefotaxime-intermediate Streptococcus pneumoniae assessed as percent susceptible isolates by agar dilution method
Streptococcus pneumoniae [9] = experiment: Antibacterial activity against amoxicillin-resistant Streptococcus pneumoniae isolate by agar dilution method
Streptococcus pneumoniae [10] = experiment: Antibacterial activity against cefotaxime-resistant Streptococcus pneumoniae assessed as percent susceptible isolates by agar dilution method
Streptococcus pneumoniae [11] = experiment: Antibacterial activity against amoxicillin-intermediate Streptococcus pneumoniae assessed as percent susceptible isolates by agar dilution method
Streptococcus pneumoniae [12] = experiment: Antibacterial activity against penicillin-susceptible Streptococcus pneumoniae isolate by agar dilution method
Streptococcus pneumoniae [13] = experiment: Antibacterial activity against amoxicillin-intermediate Streptococcus pneumoniae isolate by agar dilution method
Streptococcus pneumoniae [14] = experiment: Antibacterial activity against levofloxacin-resistant Streptococcus pneumoniae isolate by agar dilution method
Streptococcus pneumoniae [15] = experiment: Antibacterial activity against penicillin-susceptible Streptococcus pneumoniae assessed as percent susceptible isolates by agar dilution method
Streptococcus pneumoniae [16] = experiment: Antibacterial activity against amoxicillin-resistant Streptococcus pneumoniae assessed as percent susceptible isolates by agar dilution method

Row | Compound | Activity (Streptococcus pneumoniae [1]) | MIC50 (Streptococcus pneumoniae [2]) | MIC90 (Streptococcus pneumoniae [2]) | Activity (Streptococcus pneumoniae [3]) | MIC50 (Streptococcus pneumoniae [4]) | MIC90 (Streptococcus pneumoniae [4]) | Activity (Streptococcus pneumoniae [5]) | MIC50 (Streptococcus pneumoniae [6]) | MIC90 (Streptococcus pneumoniae [6]) | MIC50 (Streptococcus pneumoniae [7]) | MIC90 (Streptococcus pneumoniae [7]) | Activity (Streptococcus pneumoniae [8]) | MIC50 (Streptococcus pneumoniae [9]) | MIC90 (Streptococcus pneumoniae [9]) | MIC50 (Streptococcus pneumoniae [12]) | MIC90 (Streptococcus pneumoniae [12]) | MIC50 (Streptococcus pneumoniae [13]) | MIC90 (Streptococcus pneumoniae [13]) | MIC50 (Streptococcus pneumoniae [14]) | MIC90 (Streptococcus pneumoniae [14]) | also measured
1 | CC1(C)S[C@@H]2[C@H](NC(=O)[C@H](N)c3ccc(O)cc3)C(=O)N2[C@H]1C(=O)O [AMOXICILLIN] | 62.2% | 8 µg/mL (≈ 21.9 µM) | ≥ 16 µg/mL | 73.7% | 4 µg/mL (≈ 10.9 µM) | 16 µg/mL (≈ 43.8 µM) | 13.3% | 8 µg/mL (≈ 21.9 µM) | 16 µg/mL (≈ 43.8 µM) | 2 µg/mL (≈ 5.47 µM) | 8 µg/mL (≈ 21.9 µM) | 30.6% | 8 µg/mL (≈ 21.9 µM) | 16 µg/mL (≈ 43.8 µM) | 2 µg/mL (≈ 5.47 µM) | 8 µg/mL (≈ 21.9 µM) | 4 µg/mL (≈ 10.9 µM) | 4 µg/mL (≈ 10.9 µM) | ≤ 0.06 µg/mL | 8 µg/mL (≈ 21.9 µM) | Activity (Streptococcus pneumoniae [10]): 6.3%; Activity (Streptococcus pneumoniae [11]): 0%; Activity (Streptococcus pneumoniae [15]): 66.7%
2 | C[C@H]1COc2c(N3CCN(C)CC3)c(F)cc3c(=O)c(C(=O)O)cn1c23.C[C@H]1COc2c(N3CCN(C)CC3)c(F)cc3c(=O)c(C(=O)O)cn1c23.O [LEVOFLOXACIN] | 72% | ≤ 1 µg/mL | ≤ 1 µg/mL | 0% | ≤ 1 µg/mL | 1 µg/mL | 95% | – | 1 µg/mL | – | 16 µg/mL | 97.2% | < 1 µg/mL | 16 µg/mL | – | – | ≤ 1 µg/mL | 16 µg/mL | 16 µg/mL | ≥ 32 µg/mL | Activity (Streptococcus pneumoniae [16]): 86.7%; Activity (Streptococcus pneumoniae [10]): 93.8%
3 | CO/N=C(\C(=O)N[C@@H]1C(=O)N2C(C(=O)O)=C(COC(N)=O)CS[C@H]12)c1ccco1 [CEFUROXIME] | 26.8% | 8 µg/mL (≈ 18.9 µM) | 16 µg/mL (≈ 37.7 µM) | 55.3% | 8 µg/mL (≈ 18.9 µM) | 16 µg/mL (≈ 37.7 µM) | 0% | 16 µg/mL (≈ 37.7 µM) | ≥ 32 µg/mL | 4 µg/mL (≈ 9.43 µM) | 8 µg/mL (≈ 18.9 µM) | 0% | 8 µg/mL (≈ 18.9 µM) | 16 µg/mL (≈ 37.7 µM) | 4 µg/mL (≈ 9.43 µM) | 8 µg/mL (≈ 18.9 µM) | 4 µg/mL (≈ 9.43 µM) | 16 µg/mL (≈ 37.7 µM) | 0.25 µg/mL (≈ 0.589 µM) | 8 µg/mL (≈ 18.9 µM) | Activity (Streptococcus pneumoniae [11]): 0%; Activity (Streptococcus pneumoniae [15]): 31.6%
4 | CC1(C)S[C@@H]2[C@H](NC(=O)[C@H](N)c3ccccc3)C(=O)N2[C@H]1C(=O)O [AMPICILLIN] | – | 8 µg/mL (≈ 22.9 µM) | ≥ 16 µg/mL | – | 8 µg/mL (≈ 22.9 µM) | ≥ 16 µg/mL | – | 8 µg/mL (≈ 22.9 µM) | – | 4 µg/mL (≈ 11.4 µM) | 8 µg/mL (≈ 22.9 µM) | – | 8 µg/mL (≈ 22.9 µM) | – | 2 µg/mL (≈ 5.72 µM) | 8 µg/mL (≈ 22.9 µM) | 4 µg/mL (≈ 11.4 µM) | 8 µg/mL (≈ 22.9 µM) | 0.12 µg/mL (≈ 0.343 µM) | 8 µg/mL (≈ 22.9 µM) | –
5 | CC1(C)S[C@@H]2[C@H](NC(=O)Cc3ccccc3)C(=O)N2[C@H]1C(=O)O [PENICILLIN G] | 93.5% | 4 µg/mL (≈ 12 µM) | 4 µg/mL (≈ 12 µM) | 98% | 2 µg/mL (≈ 5.98 µM) | 4 µg/mL (≈ 12 µM) | 0% | 4 µg/mL (≈ 12 µM) | 8 µg/mL (≈ 23.9 µM) | 1 µg/mL (≈ 2.99 µM) | 2 µg/mL (≈ 5.98 µM) | 76.4% | 2 µg/mL (≈ 5.98 µM) | 4 µg/mL (≈ 12 µM) | 1 µg/mL (≈ 2.99 µM) | 2 µg/mL (≈ 5.98 µM) | 2 µg/mL (≈ 5.98 µM) | 2 µg/mL (≈ 5.98 µM) | 0.06 µg/mL (≈ 0.179 µM) | 2 µg/mL (≈ 5.98 µM) | Activity (Streptococcus pneumoniae [16]): 71.5%; Activity (Streptococcus pneumoniae [10]): 31.3%; Activity (Streptococcus pneumoniae [11]): 94.1%; Activity (Streptococcus pneumoniae [15]): 100%
6 | CO/N=C(\C(=O)N[C@@H]1C(=O)N2C(C(=O)O)=C(CSc3nc(=O)c(O)nn3C)CS[C@H]12)c1csc(N)n1 [CEFTRIAXONE] | 97.1% | 1 µg/mL (≈ 1.8 µM) | 2 µg/mL (≈ 3.61 µM) | 99.3% | 1 µg/mL (≈ 1.8 µM) | 1 µg/mL (≈ 1.8 µM) | 83.3% | 2 µg/mL (≈ 3.61 µM) | 4 µg/mL (≈ 7.21 µM) | 0.5 µg/mL (≈ 0.902 µM) | 1 µg/mL (≈ 1.8 µM) | 97.2% | 1 µg/mL (≈ 1.8 µM) | 1 µg/mL (≈ 1.8 µM) | 0.5 µg/mL (≈ 0.902 µM) | 1 µg/mL (≈ 1.8 µM) | 1 µg/mL (≈ 1.8 µM) | 1 µg/mL (≈ 1.8 µM) | 0.06 µg/mL (≈ 0.108 µM) | 1 µg/mL (≈ 1.8 µM) | Activity (Streptococcus pneumoniae [16]): 95.2%; Activity (Streptococcus pneumoniae [10]): 31.3%; Activity (Streptococcus pneumoniae [11]): 95.3%; Activity (Streptococcus pneumoniae [15]): 98.8%
7 | CC[C@H]1OC(=O)[C@H](C)[C@@H](O[C@H]2C[C@@](C)(OC)[C@@H](O)[C@H](C)O2)[C@H](C)[C@@H](O[C@@H]2O[C@H](C)C[C@H](N(C)C)[C@H]2O)[C@](C)(O)C[C@@H](C)C(=O)[C@H](C)[C@@H](O)[C@]1(C)O [ERYTHROMYCIN] | 0% | ≤ 0.12 µg/mL | ≥ 32 µg/mL | 40.8% | 0.25 µg/mL (≈ 0.341 µM) | ≥ 32 µg/mL | 63.3% | – | – | – | – | 50% | < 0.12 µg/mL | – | – | – | ≥ 32 µg/mL | ≥ 32 µg/mL | – | – | Activity (Streptococcus pneumoniae [16]): 58.2%; Activity (Streptococcus pneumoniae [10]): 62.5%; Activity (Streptococcus pneumoniae [11]): 30.6%
8 | CCO/N=C(\C(=O)N[C@@H]1C(=O)N2C(C(=O)[O-])=C(Sc3nc(-c4cc[n+](C)cc4)cs3)CS[C@H]12)c1nsc(NP(=O)(O)O)n1 [CEFTAROLINE FOSAMIL] | – | 0.12 µg/mL (≈ 0.175 µM) | 0.25 µg/mL (≈ 0.365 µM) | – | 0.12 µg/mL (≈ 0.175 µM) | 0.25 µg/mL (≈ 0.365 µM) | – | 0.25 µg/mL (≈ 0.365 µM) | 0.25 µg/mL (≈ 0.365 µM) | 0.12 µg/mL (≈ 0.175 µM) | 0.25 µg/mL (≈ 0.365 µM) | – | 0.12 µg/mL (≈ 0.175 µM) | 0.25 µg/mL (≈ 0.365 µM) | 0.12 µg/mL (≈ 0.175 µM) | 0.12 µg/mL (≈ 0.175 µM) | 0.12 µg/mL (≈ 0.175 µM) | 0.25 µg/mL (≈ 0.365 µM) | 0.03 µg/mL (≈ 0.0438 µM) | 0.12 µg/mL (≈ 0.175 µM) | –
9 | CO/N=C(\C(=O)N[C@@H]1C(=O)N2C(C(=O)[O-])=C(C[N+]3(C)CCCC3)CS[C@H]12)c1csc(N)n1 | 64.9% | 2 µg/mL (≈ 4.16 µM) | 4 µg/mL (≈ 8.32 µM) | 82.9% | 2 µg/mL (≈ 4.16 µM) | 2 µg/mL (≈ 4.16 µM) | 8.3% | 2 µg/mL (≈ 4.16 µM) | 4 µg/mL (≈ 8.32 µM) | 1 µg/mL (≈ 2.08 µM) | 2 µg/mL (≈ 4.16 µM) | 29.9% | 2 µg/mL (≈ 4.16 µM) | 8 µg/mL (≈ 16.6 µM) | 1 µg/mL (≈ 2.08 µM) | 2 µg/mL (≈ 4.16 µM) | 2 µg/mL (≈ 4.16 µM) | 2 µg/mL (≈ 4.16 µM) | 0.25 µg/mL (≈ 0.52 µM) | 2 µg/mL (≈ 4.16 µM) | Activity (Streptococcus pneumoniae [16]): 16.4%; Activity (Streptococcus pneumoniae [10]): 12.5%; Activity (Streptococcus pneumoniae [11]): 40%; Activity (Streptococcus pneumoniae [15]): 66.4%
10 | CO/N=C(\C(=O)N[C@@H]1C(=O)N2C(C(=O)O)=C(COC(C)=O)CS[C@H]12)c1csc(N)n1 [CEFOTAXIME] | 77% | 2 µg/mL (≈ 4.39 µM) | 4 µg/mL (≈ 8.78 µM) | – | 2 µg/mL (≈ 4.39 µM) | 2 µg/mL (≈ 4.39 µM) | 25% | 4 µg/mL (≈ 8.78 µM) | 8 µg/mL (≈ 17.6 µM) | 1 µg/mL (≈ 2.2 µM) | 2 µg/mL (≈ 4.39 µM) | 0% | 2 µg/mL (≈ 4.39 µM) | 2 µg/mL (≈ 4.39 µM) | 1 µg/mL (≈ 2.2 µM) | 2 µg/mL (≈ 4.39 µM) | 1 µg/mL (≈ 2.2 µM) | 2 µg/mL (≈ 4.39 µM) | 0.06 µg/mL (≈ 0.132 µM) | 1 µg/mL (≈ 2.2 µM) | Activity (Streptococcus pneumoniae [16]): 49.7%; Activity (Streptococcus pneumoniae [11]): 62.4%; Activity (Streptococcus pneumoniae [15]): 80.7%
